# Where two headings read alike, the source gives them in different places.
# Key:
# hBChE = hBChE (Homo sapiens, UniProt P06276); test: Inhibition of cholinesterases, method of Ellman (hBChE); type: biochemical; conditions: for hBChE time-dependency observed: yes/no: pre-incubation time varied (1, 5, 15, 30 or 60 min); for hBChE RA-residual activity: mean ± standard deviation, test concentration not given
# Procedure: (§1) For time-dependency measurements, the pre-incubation time was varied (1 min, 5 min, 15 min, 30 min or 60 min). The reactions were started by the addition of the substrate (final concentration, 500 μM butyrylthiocholine iodide or acetylthiocholine iodide for hBChE and hAChE, respectively). The final content of DMSO was always 1%. […] The initial velocities in the presence (vi) and absence (vo) of the test compounds were calculated. The inhibitory potencies were expressed as the residual activities, according to RA=(vi−b)/(vo−b), where b is the blank value using phosphate buffer without ChEs. For IC50 determinations, at least seven different concentrations for each compound were used. The IC50 values were obtained by plotting the residual ChE activities against the applied inhibitor concentrations, with the experimental data fitted to a four-parameter logistic function (GraphPad Prism 9.4). Tacrine and donepezil were used as positive controls.
# hAChE = hAChE (Homo sapiens, UniProt P22303); test: biochemical; type: biochemical
# hAChE, sequence (P22303 32-614): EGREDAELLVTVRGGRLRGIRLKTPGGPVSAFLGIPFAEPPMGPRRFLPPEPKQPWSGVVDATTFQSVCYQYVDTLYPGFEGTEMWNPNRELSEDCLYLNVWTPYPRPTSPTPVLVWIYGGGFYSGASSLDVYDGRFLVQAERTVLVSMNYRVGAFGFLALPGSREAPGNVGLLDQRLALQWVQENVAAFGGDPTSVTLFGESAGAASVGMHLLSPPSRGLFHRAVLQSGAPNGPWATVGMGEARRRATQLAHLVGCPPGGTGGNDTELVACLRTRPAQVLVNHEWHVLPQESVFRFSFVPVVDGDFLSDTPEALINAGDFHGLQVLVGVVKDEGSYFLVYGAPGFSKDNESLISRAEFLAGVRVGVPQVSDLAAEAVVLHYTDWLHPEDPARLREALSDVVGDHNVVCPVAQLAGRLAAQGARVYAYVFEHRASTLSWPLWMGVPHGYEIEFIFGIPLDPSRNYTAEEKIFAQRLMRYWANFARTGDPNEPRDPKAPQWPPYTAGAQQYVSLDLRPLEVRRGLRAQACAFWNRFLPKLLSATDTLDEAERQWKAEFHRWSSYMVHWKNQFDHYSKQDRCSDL
# Procedure: as §1
# [1] = biological target: T1, human α2A adrenoreceptor from CHO cells (Homo sapiens, UniProt P08913); test: α2A binding assay (Eurofins), antagonist radioligand [3H]RX821002
# T1 construct: host or cells: CHO cells
# T1 sequence (P08913 1-465): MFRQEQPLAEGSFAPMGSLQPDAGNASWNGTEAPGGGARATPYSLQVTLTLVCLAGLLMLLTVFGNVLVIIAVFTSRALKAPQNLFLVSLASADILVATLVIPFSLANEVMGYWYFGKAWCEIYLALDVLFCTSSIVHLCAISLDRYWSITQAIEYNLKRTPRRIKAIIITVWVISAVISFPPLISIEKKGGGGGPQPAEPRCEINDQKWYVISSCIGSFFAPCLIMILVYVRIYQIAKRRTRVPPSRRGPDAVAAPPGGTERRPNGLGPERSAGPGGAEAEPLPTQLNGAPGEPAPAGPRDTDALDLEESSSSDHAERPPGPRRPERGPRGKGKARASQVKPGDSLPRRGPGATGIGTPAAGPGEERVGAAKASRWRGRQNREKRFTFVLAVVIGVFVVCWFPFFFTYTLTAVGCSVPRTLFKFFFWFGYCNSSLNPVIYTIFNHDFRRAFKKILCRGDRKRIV
# Procedure: In each experiment the respective reference compound (yohimbine) was tested concurrently with the test compounds, and the data were compared with historical values determined at Eurofins. The experiment was accepted in accordance with Eurofins validation Standard Operating Procedure. Inhibition above 50% is considered to represent significant effects of the test compounds. The inhibition constants (Ki) were calculated using the Cheng-Prusoff equation.
# [2] = Hydrolysis in plasma (LC-MS); type: in vitro ADME, human
# Procedure: Samples were analysed by LC-MS system, which included Thermo Scientific UltiMate 3000 UHPLC liquid chromatograph and Thermo Scientific Exactive Plus Hybrid Quadrupole-Orbitrap mass spectrometer. The general method used a Waters Acquity UPLC® BEH C18 column (2.1×50 mm, 1.7 μm) and Waters Vanguard UPLC® BEH C18 precolumn (2.1×5 mm, 1.7 μm), thermostated at 40° C., with: injection volume, 1 μL; flow rate, 0.4 mL/min; autosampler temperature: 15° C., detector Full MS-SIM (runtime 1.5-3 min, positive mode, resolution: 70 000; AGC target: 3e^6; maximum IT: 200 ms; scan range: 200-300 m/z); mobile phase A: 0.1% formic acid in MQ water; B: 0.1% formic acid in acetonitrile. Gradient: 0-3 min, 20-75% B; 3-3.1 min 75-95% B; 3.1-4 min 95% B; 4-4.1 min 95-20% B; 4.1-6 min 20% B. Processing: ICIS peak detection algorithm, analyte 6—expected retention time: 1.87 min, 30 s window, mass range 213.14; analyte 7—expected retention time: 2.40 min, 30 s window, mass range 284.18.
# To construct the calibration curves, the highest concentration (800 nM) stock solution was prepared in plasma, and serially diluted with plasma to different compound concentrations (8, 20, 40, 60, 80, 200, 400, 600, 800 nM). 50 μL of the respective biological sample were diluted with 200 μL MeOH, vortexed, centrifuged at 4° C. and 5000 rpm for 10 min, the supernatant transferred to HPLC vials with inserts, and analysed. 5 replicates were injected to check the precision, and to ascertain the matrix effects in plasma, 0.5 μL of […] 6 was diluted with 49.5 μL of either plasma or MQ water. […] To monitor the progress of 7 hydrolysis in plasma, 1 vol. % of 7.5 μM 7 stock solution was mixed with plasma, 50 μL aliquots were drawn successively after 1, 5, and 60 min and analysed as described above. In a control experiment, the plasma used was pretreated for 5 min with 1 mM ethopropazine to inhibit BChE, then 7 was added, and the above procedure followed.
# (§2) As both 7 and BChE were being depleted, near the final timepoint the reaction rate slowed down considerably. […] 7 is readily hydrolysed in contact with plasma BChE—therefore, after an in vivo application (either parenteral or per os), adrenergic-active moiety 6 should be liberated in the bloodstream, permeate the blood-brain barrier, and reach the site of action in the central nervous system.
# [3] = Non-enzymatic hydrolysis (aqueous stability); type: physicochemical; conditions: compared with hydrolysis in plasma
# Procedure: Reactions were monitored using analytical thin-layer chromatography (TLC) on silica gel 60 F254 Al plates. Developed plates were inspected under UV light and, if necessary, visualized with ninhydrin, vanillin/sulfuric acid, Dragendorff's or potassium permanganate stains. Melting points were determined with Büchi 535 Melting Point Apparatus (uncorrected). Nuclear magnetic resonance spectra were recorded on a Bruker Avance III 400 MHz spectrometer at 400 MHz for ^1H, 100 MHz for ^13C, and 376 MHz for ^19F nucleus, respectively, using CDCl3 with TMS as the internal standard as solvent. […] Mass spectra were recorded on Thermo Scientific Q Executive Plus LC-MS/MS spectrometer and IR spectra on Thermo Nicolet FT-IR spectrophotometer. […] The purities of the tested compounds were established to be ≥95%, as determined by UPLC.
# as §2
# [4] = pre-incubation time varied (1, 5, 15, 30 or 60 min)
# [5] = 5 min preincubation, read-out: hBChE IC50 ± SEM
# [6] = control plasma with 1 mM ethopropazine, nominal 75 nM 7, timepoint 60 min
# [7] = hydrolysis of 7 in human plasma, nominal 75 nM, timepoint 1 min
# [8] = hydrolysis of 7 in human plasma, nominal 75 nM, timepoint 5 min
# [9] = hydrolysis of 7 in human plasma, nominal 75 nM, timepoint 60 min
# hBChE, sequence (P06276 29-602): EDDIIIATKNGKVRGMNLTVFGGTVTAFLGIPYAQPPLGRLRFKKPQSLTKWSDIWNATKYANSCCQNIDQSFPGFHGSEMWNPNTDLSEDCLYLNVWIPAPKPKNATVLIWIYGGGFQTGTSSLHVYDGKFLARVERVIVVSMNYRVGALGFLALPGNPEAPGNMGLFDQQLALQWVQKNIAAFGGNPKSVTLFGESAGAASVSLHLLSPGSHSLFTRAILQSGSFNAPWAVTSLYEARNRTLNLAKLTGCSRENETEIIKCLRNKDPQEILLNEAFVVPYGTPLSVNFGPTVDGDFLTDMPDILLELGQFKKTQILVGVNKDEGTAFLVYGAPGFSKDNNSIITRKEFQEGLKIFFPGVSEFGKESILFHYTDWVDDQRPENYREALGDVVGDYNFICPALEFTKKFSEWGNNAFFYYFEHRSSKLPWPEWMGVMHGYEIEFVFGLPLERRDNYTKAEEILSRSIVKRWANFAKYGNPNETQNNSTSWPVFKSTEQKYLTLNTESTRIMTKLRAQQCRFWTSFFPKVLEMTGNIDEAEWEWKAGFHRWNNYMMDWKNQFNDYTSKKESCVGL
smiles,measurement,setting,value
"CCC1(c2cn(C(=O)N(C)C)c[n+]2C)Cc2ccccc2C1 [Compound 9, 1-(Dimethylcarbamoyl)-4-(2-ethylindan-2-yl)-3-methyl-1H-imidazol-3-ium trifluoromethanesulfonate]",IC50,hBChE,4.18 ± 0.77 nM
same,hBChE time-dependency observed: yes/no,hBChE,yes
same,IC50,hAChE,431 ± 113 nM
same,hAChE time-dependency observed: yes/no,hAChE; [4],yes
"CCC1(c2cn(C(=O)N(C)Cc3ccccc3)cn2)Cc2ccccc2C1 [Compound 17, N-benzyl-4-(2-ethylindan-2-yl)-N-methyl-1H-imidazole-1-carboxamide]",IC50,hBChE; [5],95.7 ± 17.1 nM
same,hBChE time-dependency observed: yes/no,hBChE,yes
same,hAChE RA-residual activity,hAChE,46.4 ± 3.3% yes
"CCC1(c2cnn(C(=O)N(C)C)n2)Cc2ccccc2C1 [Compound 14, 4-(2-Ethylindan-2-yl)-N,N-dimethyl-2H-1,2,3-triazole-2-carboxamide]",IC50,hBChE; [5],2.39 ± 0.63 nM
same,hBChE time-dependency observed: yes/no,hBChE,yes
same,hAChE time-dependency observed: yes/no,hAChE,180.9 ± 35.5 yes
same,IC50,hAChE; read-out: hAChE IC50 ± SEM,181 ± 35.5 nM
"CCC1(c2ncn(C(=O)N(C)C)n2)Cc2ccccc2C1 [Compound 16, 3-(2-Ethylindan-2-yl)-N,N-dimethyl-1H-1,2,4-triazole-1-carboxamide]",IC50,hBChE; [5],4.12 ± 0.35 nM
same,hBChE time-dependency observed: yes/no,hBChE,yes
same,IC50,hAChE; read-out: hAChE IC50 ± SEM,1980 ± 239 nM
"CCC1(c2cn(C(=O)N3CCCCC3)cn2)Cc2ccccc2C1 [Compound 18, (4-(2-ethylindan-2-yl)-1H-imidazol-1-yl)(piperidin-1-yl)methanone]",IC50,hBChE; [5],4.8 ± 0.944 nM
same,hBChE time-dependency observed: yes/no,hBChE,yes
same,IC50,hAChE; read-out: hAChE IC50 ± SEM,5180 ± 1620 nM
"CCC1(c2nc[nH]n2)Cc2ccccc2C1 [Compound 15, 3-(2-Ethylindan-2-yl)-1H-1,2,4-triazole]",hBChE IC50 ± SEM,hBChE; 5 min preincubation,Not active
same,hBChE RA-residual activity,hBChE; 5 min preincubation,95.9 ± 6.8%
same,hAChE IC50 ± SEM,hAChE,Not active (79.8 ± 7.0%)
same,hAChE RA-residual activity,hAChE,Not active (79.8 ± 7.0%)
same,inhibition at 1 µM,[1],2.1%
"CCC1(c2cn(C(=O)N(C)C)cn2)Cc2ccccc2C1 [Compound 7, 4-(2-Ethylindan-2-yl)-N,N-dimethyl-1H-imidazole-1-carboxamide]",IC50,hBChE; [5],12.6 ± 2 nM
same,hBChE time-dependency observed: yes/no,hBChE,yes
same,hAChE time-dependency observed: yes/no,hAChE,30507 ± 6304 yes
same,IC50,hAChE; read-out: hAChE IC50 ± SEM,30500 ± 6300 nM
same,inhibition at 1 µM,[1],6%
same,concentration of analyte,"[2]; control plasma with 1 mM ethopropazine, nominal 75 nM 7, timepoint 1 min",74.477 nM
same,concentration of analyte,"[2]; control plasma with 1 mM ethopropazine, nominal 75 nM 7, timepoint 5 min",72.158 nM
same,concentration of analyte,[2]; [6],71.131 nM
same,concentration of analyte,[2]; [7],66.508 nM
same,concentration of analyte,[2]; [8],55.665 nM
same,concentration of analyte,[2]; [9],22.431 nM
same,non-enzymatic hydrolysis rate,[3],several orders of magnitude slower
"CCC1(c2cnc[nH]2)Cc2ccccc2C1 [Compound 6, 4-(2-ethylindan-2-yl)-1H-imidazole]",concentration of analyte,[2]; [6],9.816 nM
same,concentration of analyte,[2]; [7],15.911 nM
same,concentration of analyte,[2]; [8],29.071 nM
same,concentration of analyte,[2]; [9],65.375 nM
"CCN(CC)C(=O)n1cnc(C2(CC)Cc3ccccc3C2)c1 [Compound 8, N,N-diethyl-4-(2-ethylindan-2-yl)-1H-imidazole-1-carboxamide]",IC50,hBChE; [5],1460 ± 218 nM
same,hBChE time-dependency observed: yes/no,hBChE,yes
same,hAChE IC50 ± SEM,hAChE,Not active (66.8 ± 4.7%) no
same,hAChE RA-residual activity,hAChE,Not active (66.8 ± 4.7%) no
"[2H]C([2H])([2H])C([2H])([2H])C1(c2cn(C(=O)N(CC)CC)cn2)Cc2ccccc2C1 [Compound 21, N,N-diethyl-4-(2-(ethyl-d5)indan-2-yl)-1H-imidazole-1-carboxamide]",IC50,hBChE; [5],7830 ± 1320 nM
same,hBChE time-dependency observed: yes/no,hBChE,yes
same,hAChE RA-residual activity,"hAChE; 5 min preincubation, mean ± standard deviation, test concentration not given",58.9 ± 2.3%
same,hAChE time-dependency observed: yes/no,hAChE; [4],yes
"CCC1(c2cn[nH]n2)Cc2ccccc2C1 [Compound 13, 4-(2-Ethylindan-2-yl)-2H-1,2,3-triazole]",hBChE IC50 ± SEM,hBChE; 5 min preincubation,Not active
same,hBChE RA-residual activity,hBChE; 5 min preincubation,60.3 ± 1.0%
same,hAChE IC50 ± SEM,hAChE,Not active (87.3 ± 7.5%)
same,hAChE RA-residual activity,hAChE,Not active (87.3 ± 7.5%)
same,inhibition at 1 µM,[1],6.1%

# Source: patent US20260183273A1, “N,N-dialkyl-4-(2-ethylindan-2-yl)-1H-imidazole-1-carboxamides and related compounds for treatment of neurodegenerative diseases” (priority 2023, published 2026)
